In patent publication US5500443A, “New benzodioxane compounds” (Adir et Compagnie, priority 1994, dated 1996):
Counter-ions that a name gives are not always drawn. Like-named read-outs stand apart in the source and are kept apart here.

Experiments:
5-HT2A = biological target: T1, 5-HT2A (Rattus norvegicus, UniProt P14842); assay: Receptor profile, binding studies (5-HT2A); settings: Receptor Profile (pKi) 5-HT2A
T1 construct: from tissue

[1] = test system: mesolimbic dopaminergic pathways; assay: Verticalization test using apomorphine in mice; assay type: in vivo, male CF (Charles River) mice; settings: for ED50: Mus musculus, sc, read-out: Verticalization (Apomorphine) DI50
Experimental: (§1) An activity in these tests appears to reflect blocking of the mesolimbic dopaminergic pathways, which are believed to be hyperactive in schizophrenics, as described by P. C.
The experiment was performed on male CF (Charles River) mice of average weight 25 g. thirty minutes before the start of the test, each mouse was placed in a cylindrical cage (O12 cm 14 cm), with vertical metal bars and a smooth plastic lid, after having received a subcutaneous injection of solvent or of product. […] At T10 (10 minutes) and at T20 (20 minutes), a score was attributed to each animal after observation for approximately one minute:
score 0 (4 feet on the floor);
score 1 (animal raised on hind legs, forefeet on the vertical bars);
score 2 (animal gripping on to the bars with all 4 feet).
The total score of the 2 measurements then represents the verticalization value of the animal, which is used for the statistical analysis.

5-HT2C = biological target: T2, 5-HT2C (Sus scrofa, UniProt K7GSR7); assay: Receptor profile, binding studies (5-HT2C); settings: Receptor Profile (pKi) 5-HT2C
T2 construct: from tissue
T2 sequence (K7GSR7 1-457): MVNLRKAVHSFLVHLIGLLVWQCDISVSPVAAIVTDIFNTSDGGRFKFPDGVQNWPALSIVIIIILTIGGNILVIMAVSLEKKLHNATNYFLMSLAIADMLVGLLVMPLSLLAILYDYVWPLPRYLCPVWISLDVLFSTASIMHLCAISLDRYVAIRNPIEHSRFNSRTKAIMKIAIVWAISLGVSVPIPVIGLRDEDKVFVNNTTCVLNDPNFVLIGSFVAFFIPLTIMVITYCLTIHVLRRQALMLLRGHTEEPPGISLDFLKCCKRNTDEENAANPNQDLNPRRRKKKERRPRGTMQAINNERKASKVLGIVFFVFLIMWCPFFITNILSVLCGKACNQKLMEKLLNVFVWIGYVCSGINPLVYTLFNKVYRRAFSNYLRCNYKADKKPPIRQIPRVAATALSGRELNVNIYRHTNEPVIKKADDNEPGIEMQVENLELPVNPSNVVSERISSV

α1 = assay: Receptor profile, binding studies (α1)
[2] = test system: mesolimbic dopaminergic pathways; assay: Test of the motor activity induced by amphetamine; assay type: in vivo, male Wistar rats; settings: for ED50: Rattus norvegicus, sc, read-out: Locomotion (Amphetamine) DI50
Experimental: motor activity inhibition induced by amphetamine (which increases the release of catecholamines) according to the procedure described by A. A. Mengens, cited above.
as §1
Male Wistar rats (200-220 g) were placed in transparent polycarbonate individual cages the night before the test. The locomotor activity was recorded using photoelectric cells (Systeme Lablinc, Coulbourn) connected via an interface to a microcomputer. There are two transverse banks of photoelectric cells per cage. The test takes place under artificial light, starting from 1.00 p.m., during daylight hours. The product or solvent was administered to the animal subcutaneously, 30 minutes before the start of the test.

5-HT1A = biological target: T3, 5-HT1A (Rattus norvegicus, UniProt P19327); assay: biochemical; settings: binding; read-out: Receptor Profile (pKi) 5-HT1A (converted)
T3 sequence (P19327 1-422): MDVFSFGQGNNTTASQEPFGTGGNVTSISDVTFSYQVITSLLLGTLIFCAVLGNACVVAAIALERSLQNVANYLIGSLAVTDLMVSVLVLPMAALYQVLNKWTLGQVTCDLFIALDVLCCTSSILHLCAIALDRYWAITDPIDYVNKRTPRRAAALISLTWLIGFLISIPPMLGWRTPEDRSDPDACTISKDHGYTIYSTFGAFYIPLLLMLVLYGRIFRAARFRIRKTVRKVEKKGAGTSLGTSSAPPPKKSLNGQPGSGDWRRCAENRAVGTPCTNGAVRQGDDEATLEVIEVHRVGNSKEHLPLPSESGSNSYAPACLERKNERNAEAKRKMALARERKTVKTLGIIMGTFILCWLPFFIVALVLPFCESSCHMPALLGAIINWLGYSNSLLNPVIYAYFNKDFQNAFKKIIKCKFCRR

D2 = D2 (Rattus norvegicus, UniProt P61169); assay: biochemical; settings: binding; read-out: Receptor Profile (pKi) D2 (converted)
Sequence of D2 (P61169 whole entry): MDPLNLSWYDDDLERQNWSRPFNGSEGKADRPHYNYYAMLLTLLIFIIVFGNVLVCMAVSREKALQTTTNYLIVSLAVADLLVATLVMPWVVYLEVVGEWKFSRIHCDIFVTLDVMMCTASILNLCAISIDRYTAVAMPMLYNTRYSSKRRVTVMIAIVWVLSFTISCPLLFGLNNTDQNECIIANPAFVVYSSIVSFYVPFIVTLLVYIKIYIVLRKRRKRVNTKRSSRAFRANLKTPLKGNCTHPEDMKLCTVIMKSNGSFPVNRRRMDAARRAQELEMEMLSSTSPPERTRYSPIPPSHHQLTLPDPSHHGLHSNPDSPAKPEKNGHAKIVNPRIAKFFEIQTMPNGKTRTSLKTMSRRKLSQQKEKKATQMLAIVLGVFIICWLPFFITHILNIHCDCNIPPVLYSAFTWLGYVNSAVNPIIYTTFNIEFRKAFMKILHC

[3] = Induction of catalepsy in rats; parameters: species or system male Wistar rats; settings: rat, in vivo, sc
Source text: In order to determine the potential of the compounds of the invention to generate a syndrome of extrapyramidal type, the capacity to induce a catalepsy in rats was examined. This phenomenon is due to an antagonism of the nigrostriatal dopaminergic transmission.
Male Wistar rats (220-240 g) were placed in individual cages and food was witheld the night before the test. The test used to evaluate the cataleptogenic properties of a product consists in placing each of the animal's hind feet on the forefoot located on the same side and in measuring the time in seconds for which the animal kept this "crossed feet" position, up to 30 seconds, as described by P. C. […] Each animal underwent three tests, at intervals of one minute; the average value of the three tests then represents the catalepsy time of the animal, which is used for the statistical analysis. The product to be tested was administered to the animal subcutaneously, 30 minutes before the test.
The effective cataleptogenic dose ED5.sbsb.0 is that which induces catalepsy for an average duration of 15 seconds, that is to say for 50% of the maximum duration of the test (30 seconds).

D1 = biological target: T4, D1 (Rattus norvegicus, UniProt P18901); assay: Receptor profile, binding studies (D1); settings: read-out: Receptor Profile (pKi) D1 (converted)
T4 construct: from tissue
T4 sequence (P18901 whole entry): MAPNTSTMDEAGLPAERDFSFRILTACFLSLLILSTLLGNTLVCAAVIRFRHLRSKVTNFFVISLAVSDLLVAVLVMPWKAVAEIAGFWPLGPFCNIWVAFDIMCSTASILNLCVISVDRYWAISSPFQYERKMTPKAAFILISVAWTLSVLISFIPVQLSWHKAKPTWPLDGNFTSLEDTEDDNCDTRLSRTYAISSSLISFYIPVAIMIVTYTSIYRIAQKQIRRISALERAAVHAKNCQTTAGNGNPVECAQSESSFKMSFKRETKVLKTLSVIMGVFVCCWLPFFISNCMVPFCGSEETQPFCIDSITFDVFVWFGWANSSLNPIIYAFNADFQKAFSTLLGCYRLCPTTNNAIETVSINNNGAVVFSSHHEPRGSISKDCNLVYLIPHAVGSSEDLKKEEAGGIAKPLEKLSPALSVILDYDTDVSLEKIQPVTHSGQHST

5-HT1A receptors = settings: unlike haloperidol; cited from earlier work
[4] = test system: adrenergic (α1) receptors; settings: cited from earlier work
schizophrenia = settings: cited from earlier work
[5] = mice, s.c. 30 min before, apomorphine 0.75 mg/kg s.c., Inhibitory Dose50, 95% confidence limits
[6] = rats, s.c. 30 min before, D-amphetamine 2.5 mg/kg i.p., 1 hour, Inhibitory Dose50, 95% confidence limits

T1 sequence (P14842 whole entry): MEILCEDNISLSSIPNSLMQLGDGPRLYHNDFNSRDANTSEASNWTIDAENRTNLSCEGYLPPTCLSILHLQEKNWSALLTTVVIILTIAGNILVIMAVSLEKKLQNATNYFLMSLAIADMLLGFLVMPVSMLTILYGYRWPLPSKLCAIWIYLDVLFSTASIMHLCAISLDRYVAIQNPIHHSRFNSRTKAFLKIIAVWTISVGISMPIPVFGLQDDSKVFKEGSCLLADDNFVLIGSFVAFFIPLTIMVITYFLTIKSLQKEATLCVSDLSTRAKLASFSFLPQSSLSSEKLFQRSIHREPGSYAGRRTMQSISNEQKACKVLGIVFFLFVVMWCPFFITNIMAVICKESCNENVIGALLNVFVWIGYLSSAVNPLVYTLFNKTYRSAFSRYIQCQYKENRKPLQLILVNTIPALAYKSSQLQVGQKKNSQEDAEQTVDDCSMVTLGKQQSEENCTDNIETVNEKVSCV

Row | Compound | Ki (5-HT2A) [nM] | ED50 [1, 5] [mg/kg] | Ki (5-HT2C) [nM] | ED50 [2, 6] [mg/kg] | Ki (5-HT1A) [nM] | Ki (D2) [nM] | ED50 at 0.5 h [3] [mg/kg] | Ki (D1) [nM] | also measured
1 | O=C(CC1CCN(CCOc2cccc3c2OCCO3)C1)c1ccc(F)cc1 (single isomer, unassigned) [Example 5, 5-{2-[3-(4-Fluorobenzoylmethyl)pyrrolidin-1-yl]ethoxy}-1,4-benzodioxane hydrochloride, (+) isomer] | 3.31 | 0.26 | 9.33 | 2.8 | 4.79 | 46.8 | > 40 | 275 | Receptor Profile (pKi) α1 (α1; listed as ex. 5): 8.19
2 | O=C(CC1CCN(CCOc2cccc3c2OCCO3)C1)c1ccc(F)cc1 (single isomer, unassigned) [Example 6, 5-{2-[3-(4-Fluorobenzoylmethyl)pyrrolidin-1-yl]ethoxy}-1,4-benzodioxane hydrochloride, (-) isomer] | 2.4 | – | 6.61 | – | 3.63 | 53.7 | – | 204 | Verticalization (Apomorphine) DI50 ([1]; mice, s.c. 30 min before, apomorphine 0.75 mg/kg s.c., Inhibitory Dose50, 95% confidence limits, listed as Ex. 6): 0.25 mg/kg; Receptor Profile (pKi) α1 (α1; listed as ex. 6): 8.93; Locomotion (Amphetamine) DI50 ([2]; rats, s.c. 30 min before, D-amphetamine 2.5 mg/kg i.p., 1 hour, Inhibitory Dose50, 95% confidence limits, listed as Ex. 6): 1.94 mg/kg
3 | CN1CCN(C2=Nc3cc(Cl)ccc3Nc3ccccc32)CC1 [Clozapine, clozapine] | – | 2.22 | – | 12.8 | – | – | – | – | affinity for the 5-HT1A receptors (5-HT1A receptors): a certain affinity for the 5-HT1A receptors; affinity for the adrenergic (α1) receptors [4]: relatively high affinity; ED50 at 0.5 h ([3]; rats, s.c. 30 min before, dose inducing catalepsy for an average of 15 seconds (50% of maximum), read-out: Induction of the catalepsy DE50): > 40 mg/kg; toxicity in the general treatment of schizophrenic states (schizophrenia; human, in vivo): on account of its toxicity, clozapine cannot be envisaged in the general treatment of schizophrenic states; extrapyramidal syndrome (schizophrenia; schizophrenia): appears not to bring about an extrapyramidal syndrom
4 | O=C(CC1CCN(CCOc2cccc3c2OCCO3)C1)c1ccc(F)cc1 (stereo not shown) [Example 2, 5-{2-[3-(4-Fluorobenzoylmethyl)pyrrolidin-1-yl}-1,4-benzodioxane hydrochloride] | 3.98 | 0.28 | 7.94 | 2.17 | 4.9 | 43.7 | > 40 | 251 | Receptor Profile (pKi) α1 (α1): 8.61
5 | Cl.Fc1ccc2c(CC3CCN(CCOc4cccc5c4OCCO5)C3)n[nH]c2c1 (stereo not shown) [Example 7, 5-{2-[3-[(6-Fluoro-1H-indazol-3-yl)methyl]pyrrolidin-1-yl]ethoxy}-1,4-benzodioxane hydrochloride] | 21.9 | 0.41 | 93.3 | – | 1.7 | 53.7 | – | – | –
6 | Cl.Fc1ccc2c(CC3CCN(CCOc4cccc5c4OCCO5)C3)noc2c1 (stereo not shown) [Example 8, 5-{2-[3-[(6-Fluoro-1,2-benzisoxazol-3-yl)methyl]pyrrolidin-1-yl]ethoxy}-1,4-benzodioxane hydrochloride] | 13.2 | ~0.63 | 95.5 | – | 3.89 | 257 | – | – | –
7 | O=C(CCCN1CCC(O)(c2ccc(Cl)cc2)CC1)c1ccc(F)cc1 [Haloperidol, haloperidol, reference compound] | – | – | – | – | – | – | 0.156 | – | ED50 [1]: 0.013 mg/kg; ED50 [2]: 0.043 mg/kg; effectiveness for the productive symptoms (such as fabulation and hallucinations) (schizophrenia; schizophrenia): quite good care for the productive symptoms; effectiveness with regard to deficiency symptoms (such as social withdrawal) (schizophrenia; schizophrenia): very poor; extrapyramidal syndrome (schizophrenia; schizophrenia): induce an extrapyramidal syndrome of Parkinson type
